US7884136B2, “Modified-release formulations of a bupropion salt” (Biovail Laboratories International S.R.L., priority 2005, dated 2011)

Assay: Accelerated stability study of bupropion HBr, closed bottles, 40° C./75% RH, 3 and 6 months, HPLC
Type: physicochemical
Settings: 40° C., R.H. 75%; for Chromatographic purity B) (HPLC) 4) 2-N-(tert-Butyl)-aminopropiophenone / Chromatographic purity B) (HPLC) 5) single unknown impurity (each): LOQ 0.02%, LOD 0.002%; for Chromatographic purity A) (HPLC) 1) 3′-Chloropropiophenone / Chromatographic purity A) (HPLC) 3) 3′-Chlorobenzoic acid / Chromatographic purity A) (HPLC) 2) 3′-Chloro-2-bromopropiophenone: LOQ 0.05%; for Chromatographic purity A) (HPLC) 1) 3′-Chloropropiophenone / Chromatographic purity A) (HPLC) 3) 3′-Chlorobenzoic acid: LOD 0.01%; for Chromatographic purity A) (HPLC) 2) 3′-Chloro-2-bromopropiophenone: LOD 0.04%
Description: The samples were prepared in closed bottles and placed in the stability chamber. HPLC analysis was conducted on the samples prior to placing them in the stability chamber (time 0), and after 3 months and 6 months. The amounts of the main degradation products present at time 0 were compared with those amounts present after 3 months and 6 months. […] For each sample tested, at each time period, two different HPLC assays were run. The first assay labelled chromatographic purity A, measured the percentage of three impurities 3′chloropropiophenone, 3′-Chloro-2-bromopropiophenone and 3′-Chlorobenzoic acid. The second assay, labelled chromatographic purity B, measured the percentage of 2-N-(tert-Butyl)-aminopropiophenone, a single unknown impurity and the total unknown impurities.

Br.CC(NC(C)(C)C)C(=O)c1cccc(Cl)c1 (stereo not drawn) [Bupropion•HBr]
Assay (HPLC) (Batch D00894, 3 month): 99.6 % on d.b. | Chromatographic purity (HPLC: A + B) Total impurities (Batch D00894, 3 month): 0.1% | Chromatographic purity B) (HPLC) 6) total unknown impurities (Batch D00894, 3 month): 6) 0.06% | Description (white or almost white crystalline powder) (Batch D00894, 3 month): conform | Identification IR, HPLC (Batch D00894, 3 month): positive | Water content (K.F.) (Batch D00894, 3 month): 0.07% | Chromatographic purity B) (HPLC) 4) 2-N-(tert-Butyl)-aminopropiophenone (Batch D00894, 3 month): 4) 0.03% | Chromatographic purity B) (HPLC) 5) single unknown impurity (each) (Batch D00894, 3 month): 5) 0.04% | Chromatographic purity A) (HPLC) 1) 3′-Chloropropiophenone (Batch D00894, 3 month): 1) n.q. | Chromatographic purity A) (HPLC) 3) 3′-Chlorobenzoic acid (Batch D00894, 3 month): 3) n.q. | Chromatographic purity A) (HPLC) 2) 3′-Chloro-2-bromopropiophenone (Batch D00894, 3 month): 2) n.d. | Assay (HPLC) (Batch D00894, 6 months): 99.7 % on d.b. | Chromatographic purity (HPLC: A + B) Total impurities (Batch D00894, 6 months): 0.1% | Chromatographic purity B) (HPLC) 6) total unknown impurities (Batch D00894, 6 months): 6) 0.02% | Description (white or almost white crystalline powder) (Batch D00894, 6 months): conform | Identification IR, HPLC (Batch D00894, 6 months): positive | Water content (K.F.) (Batch D00894, 6 months): 0.08% | Chromatographic purity B) (HPLC) 4) 2-N-(tert-Butyl)-aminopropiophenone (Batch D00894, 6 months): 4) 0.04% | Chromatographic purity B) (HPLC) 5) single unknown impurity (each) (Batch D00894, 6 months): 5) n.q. | Chromatographic purity A) (HPLC) 1) 3′-Chloropropiophenone (Batch D00894, 6 months): 1) 0.05% | Chromatographic purity A) (HPLC) 3) 3′-Chlorobenzoic acid (Batch D00894, 6 months): 3) n.q. | Chromatographic purity A) (HPLC) 2) 3′-Chloro-2-bromopropiophenone (Batch D00894, 6 months): 2) n.d. | Assay (HPLC) (Batch D00894, time 0): 99.6 % on d.b. | Chromatographic purity (HPLC: A + B) Total impurities (Batch D00894, time 0): 0.1% | Chromatographic purity B) (HPLC) 6) total unknown impurities (Batch D00894, time 0): 6) 0.04% | Description (white or almost white crystalline powder) (Batch D00894, time 0): conform | Identification IR, HPLC (Batch D00894, time 0): positive | Water content (K.F.) (Batch D00894, time 0): 0.05% | Chromatographic purity B) (HPLC) 4) 2-N-(tert-Butyl)-aminopropiophenone (Batch D00894, time 0): 4) 0.04% | Chromatographic purity B) (HPLC) 5) single unknown impurity (each) (Batch D00894, time 0): 5) 0.04% | Chromatographic purity A) (HPLC) 1) 3′-Chloropropiophenone (Batch D00894, time 0): 1) n.d. | Chromatographic purity A) (HPLC) 3) 3′-Chlorobenzoic acid (Batch D00894, time 0): 3) n.q. | Chromatographic purity A) (HPLC) 2) 3′-Chloro-2-bromopropiophenone (Batch D00894, time 0): 2) n.d. | Assay (HPLC) (Batch D00895, 3 month): 100.7 % on d.b. | Chromatographic purity (HPLC: A + B) Total impurities (Batch D00895, 3 month): 0.1% | Chromatographic purity B) (HPLC) 6) total unknown impurities (Batch D00895, 3 month): 6) 0.05% | Description (white or almost white crystalline powder) (Batch D00895, 3 month): conform | Identification IR, HPLC (Batch D00895, 3 month): positive | Water content (K.F.) (Batch D00895, 3 month): 0.07% | Chromatographic purity B) (HPLC) 4) 2-N-(tert-Butyl)-aminopropiophenone (Batch D00895, 3 month): 4) 0.03% | Chromatographic purity B) (HPLC) 5) single unknown impurity (each) (Batch D00895, 3 month): 5) 0.04% | Chromatographic purity A) (HPLC) 1) 3′-Chloropropiophenone (Batch D00895, 3 month): 1) n.q. | Chromatographic purity A) (HPLC) 3) 3′-Chlorobenzoic acid (Batch D00895, 3 month): 3) 0.05% | Chromatographic purity A) (HPLC) 2) 3′-Chloro-2-bromopropiophenone (Batch D00895, 3 month): 2) n.d. | Assay (HPLC) (Batch D00895, 6 months): 99.7 % on d.b. | Chromatographic purity (HPLC: A + B) Total impurities (Batch D00895, 6 months): 0.1% | Chromatographic purity B) (HPLC) 6) total unknown impurities (Batch D00895, 6 months): 6) 0.02% | Description (white or almost white crystalline powder) (Batch D00895, 6 months): conform | Identification IR, HPLC (Batch D00895, 6 months): positive | Water content (K.F.) (Batch D00895, 6 months): 0.07% | Chromatographic purity B) (HPLC) 4) 2-N-(tert-Butyl)-aminopropiophenone (Batch D00895, 6 months): 4) 0.04% | Chromatographic purity B) (HPLC) 5) single unknown impurity (each) (Batch D00895, 6 months): 5) n.q. | Chromatographic purity A) (HPLC) 1) 3′-Chloropropiophenone (Batch D00895, 6 months): 1) 0.05% | Chromatographic purity A) (HPLC) 3) 3′-Chlorobenzoic acid (Batch D00895, 6 months): 3) n.q. | Chromatographic purity A) (HPLC) 2) 3′-Chloro-2-bromopropiophenone (Batch D00895, 6 months): 2) n.d. | Assay (HPLC) (Batch D00895, time 0): 99.2 % on d.b. | Chromatographic purity (HPLC: A + B) Total impurities (Batch D00895, time 0): 0.1% | Chromatographic purity B) (HPLC) 6) total unknown impurities (Batch D00895, time 0): 6) 0.04% | Description (white or almost white crystalline powder) (Batch D00895, time 0): conform | Identification IR, HPLC (Batch D00895, time 0): positive | Water content (K.F.) (Batch D00895, time 0): 0.04% | Chromatographic purity B) (HPLC) 4) 2-N-(tert-Butyl)-aminopropiophenone (Batch D00895, time 0): 4) 0.04% | Chromatographic purity B) (HPLC) 5) single unknown impurity (each) (Batch D00895, time 0): 5) 0.04% | Chromatographic purity A) (HPLC) 1) 3′-Chloropropiophenone (Batch D00895, time 0): 1) n.d. | Chromatographic purity A) (HPLC) 3) 3′-Chlorobenzoic acid (Batch D00895, time 0): 3) n.q. | Chromatographic purity A) (HPLC) 2) 3′-Chloro-2-bromopropiophenone (Batch D00895, time 0): 2) n.d.
